# From PMC10877564, “Activity of Gut-Derived Nisin-like Lantibiotics against Human Gut Pathogens and Commensals” (ACS Chemical Biology, 2024)
# Positions of bridges follow the written chain, without caps; N, C: chain ends. Non-standard residues stand in square brackets, D forms with d. No end group written: not given here. Abu = CC[C@H](N)C(=O)O; Dhb = C/C=C(\N)C(=O)O; Dha = C=C(N)C(=O)O
# Tests used:
# [1] = Liposome permeabilization assay, liposomes with lipid II; format: biochemical; details: 375 nM lantibiotic; DOPC with 0.1 mol% lipid II, 50 µM phospholipid; pyranine fluorescence, 30 min, room temperature; three replicates; Figure S7B
# Procedure: (§1) To further investigate the mechanisms of action of these nisin-like lantibiotics, we performed liposome permeabilization assays using liposomes with or without lipid II (Figure S7).
# (§2) Liposome Permeabilization Assay
# (§3) To prepare pyranine encapsulated liposomes, DOPC (25 mg/mL in CHCl3, purchased from Avanti) was deposited into a vial and mixed with lipid II (dissolved in 2:1 CHCl3: MeOH, prepared chemoenzymatically).6 The solvent was removed using a stream of N2 leaving a thin film. Residual solvent was removed by storing it overnight in a vacuum desiccator. The film was rehydrated in buffer (5 mM Tricine, 5 mM MES, 5 mM NaCl, 1 mM pyranine pH = 6.0) and suspended with vortexing. The suspension was subjected to freeze-thaw three times before extrusion through a […] polycarbonate filter (21 passes). Excess pyranine was removed by passing the liposome solution through a Sephadex G-50 column previously equilibrated with buffer (5 mM Tricine, 5 mM MES, 5 mM NaCl, pH = 6.0). The eluted liposome solution containing the highest concentration of encapsulated pyranine (as determined visually with a UV lamp) was immediately placed on ice. Phospholipid concentration was determined by NMR as described previously.7 To measure liposome permeabilization, to a 96 well black polystyrene plate was added buffer (5 mM Tricine, 5 mM MES, 5 mM NaCl, pH = 8.0; 97 µL) and liposome solution (3 µL; 50 µM phospholipid concentration during assay). The wells were allowed to equilibrate for 8 min at room temperature then antibiotic was added. The antibiotic concentration in each well was 375 nM.
# (§4) Pyranine fluorescence was monitored for 30 min then Triton X-100 was added to a final concentration of 0.1% and pyranine fluorescence was monitored for an additional 5 min. The pyranine fluorescence signal was max-min normalized. […]
# (§5) Fig. S7 Liposome permeabilization assays of nisin-like lantibiotics. (A) Scheme of liposome […]
# (§6) low fluorescence. Fluorescence increases upon liposome permeabilization and pH increase . (B) Fraction of liposomes permeabilized by lantibiotics (375 nM). Liposomes were composed of DOPC with or without 0.1 mol% lipid II. Error bars represent the standard of deviation of three […]
# (§7) (1 picture or pasted object on this page, not shown here)
# [2] = test system: A. hadrus MSK.14.23; assay: MIC assay, anaerobic broth dilution; format: cell-based, Anaerostipes hadrus; details: BHIS, 37 °C, 48 h, 3-fold serial dilution
# Description: Antibiotic treatment may result in collateral damage to commensal bacteria in the human microbiome, leading to dysbiosis and susceptibility to various diseases.[44] How lantibiotics impact Gram-positive commensals from the human gut has remained unclear. Therefore, we performed antimicrobial activity tests of these lantibiotics against selected Gram-positive human gut commensals, most of which belong to the Lachnospiraceae family, one of the most abundant bacterial families in the human gut.[27] In general, human gut commensals were more susceptible to the set of investigated lantibiotics compared to pathogens (Figure 3). […]
# Isolation of human gut commensal bacteria
# Isolation and growth of commensal bacteria was done as previously reported.5 Briefly, fresh donor fecal samples were transferred into an anaerobic chamber (Coy Labs) within 1 h of collection. The anaerobic chamber was maintained using a gas mix consisting of 5% hydrogen, 5% carbon dioxide and 90% nitrogen, and hydrogen was maintained at ~3.0% using an anaerobic gas infuser. […]
# (§8) All MIC assays were performed under anaerobic condition. […] Lantibiotics were dissolved in DPBS, and concentrations were determined by BCA assay (Pierce) according to the manufacturer’s protocol. […]
# [3] = test system: selected Gram-positive human gut commensals; assay: MIC assay against the panel of Gram-positive human gut commensals; format: cell-based; details: commensal panel, Figure 3F-M; anaerobic
# Description: Antibiotic treatment may result in collateral damage to commensal bacteria in the human microbiome, leading to dysbiosis and susceptibility to various diseases.[44] How lantibiotics impact Gram-positive commensals from the human gut has remained unclear. Therefore, we performed antimicrobial activity tests of these lantibiotics against selected Gram-positive human gut commensals, most of which belong to the Lachnospiraceae family, one of the most abundant bacterial families in the human gut.[27] In general, human gut commensals were more susceptible to the set of investigated lantibiotics compared to pathogens (Figure 3).
# Elution Buffer (4 M guanidine hydrochloride, 20 mM Tris HCl, pH 7.5 at 25 °C, 100 mM NaCl, 1 M imidazole). Peptides eluted from the Ni resin were concentrated and desalted using 3 kDa Amicon filters (Millipore). For leader peptide removal, the peptide (1:20 trypsin to peptide) was incubated with the trypsin protease in 50 mM Tris-HCl, pH 8 overnight at 37 °C. Lastly, the core peptides were further purified with HPLC using an Agilent 1200 instrument (Agilent) as specified in general methods. About 1.5 mg recombinant peptide was obtained after HPLC purification per […]
# as §8
# [4] = Liposome permeabilization assay, liposomes without lipid II; format: biochemical; details: 375 nM lantibiotic; DOPC, 50 µM phospholipid; pyranine fluorescence, 30 min; three replicates; Figure S7
# Procedure: as §1, §2, §3, §4, §5, §6, §7
substance,measurement,setting,value
"nisin A (I[Dhb]AI[Dha]LC[Abu]PGCK[Abu]GALMGCNMK[Abu]A[Abu]CHCSIHV[Dha]K; thioether 8-11, 13-19, 23-26, 25-28, 3-7; UniProt P13068 24-57, looked up) [prototypical class I lantibiotic produced by L. lactis, food preservative; commercial nisin A]",permeabilization of lipid II-containing liposomes (in words),[1],strongly induced permeabilization
same,nisin A MIC,[2],0.0110 µM
same,antimicrobial activity against human gut commensals (ranking in words),[3],generally more effective in growth inhibition
same,permeabilization of liposomes without lipid II compared to liposomes with lipid II (in words),[4],decreased permeabilization activities
